Experimental data as given in patent US20150352108A1, “AMINO-PYRIMIDINE COMPOUNDS AS INHIBITORS OF TBK1 AND/OR IKK EPSILON” (Alzheimer's Institute of America, priority 2009, published 2015).
Read-outs that look alike come from different tables or passages of the source.

Key:
[1] = biological target: T1, IKKε (Homo sapiens, UniProt Q14164); test: In-vitro IKKε kinase assay ([γ33]ATP filter-plate); type: biochemical
T1 construct: His-tag; made in house; host or cells: Sf9 insect cells
T1 sequence (Q14164 1-716): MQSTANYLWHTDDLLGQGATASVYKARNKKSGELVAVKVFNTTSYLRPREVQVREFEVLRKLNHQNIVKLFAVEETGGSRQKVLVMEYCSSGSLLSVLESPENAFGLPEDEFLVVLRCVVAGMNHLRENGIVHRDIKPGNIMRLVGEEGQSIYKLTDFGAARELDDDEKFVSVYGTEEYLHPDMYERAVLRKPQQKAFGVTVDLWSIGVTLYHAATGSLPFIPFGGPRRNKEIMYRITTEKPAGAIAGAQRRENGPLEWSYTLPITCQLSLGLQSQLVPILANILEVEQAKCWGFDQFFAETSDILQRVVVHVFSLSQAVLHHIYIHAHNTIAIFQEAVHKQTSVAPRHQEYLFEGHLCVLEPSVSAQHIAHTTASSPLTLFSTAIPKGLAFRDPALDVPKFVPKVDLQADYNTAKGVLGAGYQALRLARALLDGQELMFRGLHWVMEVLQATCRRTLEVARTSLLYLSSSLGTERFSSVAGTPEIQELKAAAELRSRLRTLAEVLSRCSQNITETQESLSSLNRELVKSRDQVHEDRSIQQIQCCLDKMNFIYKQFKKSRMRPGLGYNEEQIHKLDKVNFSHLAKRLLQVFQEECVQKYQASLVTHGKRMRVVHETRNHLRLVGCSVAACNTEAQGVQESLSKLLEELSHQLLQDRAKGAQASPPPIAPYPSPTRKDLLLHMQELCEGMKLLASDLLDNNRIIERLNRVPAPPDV
Procedure, shortened: (§1)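 His-tagged IKKε and TBK1 from Sf9 cells were assayed with myelin basic protein or casein and [γ33]ATP at 2×Km ATP (32 μM for IKKε, 60 μM for TBK1). Enzyme was 0.1 or 0.015 μg/ml for IKKε and 0.1 or 0.02 μg/ml for TBK1 (normal/sensitized). Reactions ran 30-45 min, were filter-captured, scintillation-counted, and normalized to DMSO after background subtraction.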

[2] = biological target: T2, TBK1 (Homo sapiens, UniProt Q9UHD2); test: In-vitro TBK1 kinase assay ([γ33]ATP filter-plate); type: biochemical
T2 construct: His-tag; made in house; host or cells: Sf9 insect cells
T2 sequence (Q9UHD2 1-729): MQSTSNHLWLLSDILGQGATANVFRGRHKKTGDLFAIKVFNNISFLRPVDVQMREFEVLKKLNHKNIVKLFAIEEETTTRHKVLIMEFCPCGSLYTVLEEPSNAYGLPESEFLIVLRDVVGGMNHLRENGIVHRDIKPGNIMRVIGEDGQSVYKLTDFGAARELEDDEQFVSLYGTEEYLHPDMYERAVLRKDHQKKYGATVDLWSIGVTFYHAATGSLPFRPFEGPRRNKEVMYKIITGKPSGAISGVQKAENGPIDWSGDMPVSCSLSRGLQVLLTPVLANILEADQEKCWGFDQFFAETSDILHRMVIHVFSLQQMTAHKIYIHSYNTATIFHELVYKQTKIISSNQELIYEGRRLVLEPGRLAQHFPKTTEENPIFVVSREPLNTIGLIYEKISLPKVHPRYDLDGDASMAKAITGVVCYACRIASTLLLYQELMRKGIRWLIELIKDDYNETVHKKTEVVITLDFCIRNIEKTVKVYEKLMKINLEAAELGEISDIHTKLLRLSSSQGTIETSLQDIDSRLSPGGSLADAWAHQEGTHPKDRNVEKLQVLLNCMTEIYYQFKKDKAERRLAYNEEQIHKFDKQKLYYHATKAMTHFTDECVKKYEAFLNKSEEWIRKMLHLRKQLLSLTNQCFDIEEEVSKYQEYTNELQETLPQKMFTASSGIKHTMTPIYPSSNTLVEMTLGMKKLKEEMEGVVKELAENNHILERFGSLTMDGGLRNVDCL
Procedure, shortened: as §1

[3] = tested on: IKKε-mediated phosphorylation of IRF3; test: In-situ phosphorylation of IRF3 (pIRF3 Ser396 ELISA) in HEK293T cells cotransfected with IRF3 and IKKε; type: cell-based; conditions: Homo sapiens, HEK-293T
Procedure, shortened: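 Cells for the IRF7 Western blots carried IRF7 and TBK1 plasmids, were seeded at 150,000/well, exposed to compound overnight and probed for pSer477/Ser479 IRF7. The ELISA readout used IRF3 + IKKε-cotransfected HEK293T at 20,000/well with 20 h treatment, quantifying pSer396 IRF3 relative to DMSO, plus a parallel CellTiter-Glo viability check.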

[4] = text bins, read-out: IC50 for inhibition of the kinase activity of IKKε
[5] = text bins, read-out: IC50 for inhibition of the kinase activity of TBK1
[6] = HEK293T cells, 20 hours, text bins, read-out: IC50 for inhibition of the in-situ IKKε-mediated phosphorylation of IRF3
[7] = HEK293T cells in culture, Table 3, read-out: pIRF3 ELISA IC50

| Compound | IC50 [1, 4] [nM] | IC50 [2, 5] [nM] | IC50 [3, 6] [nM] | IC50 ([1]; Table 3, read-out: IKKε IC50) [nM] | IC50 ([2]; Table 3, read-out: TBK1 IC50) [nM] | IC50 [3, 7] [nM] |
| --- | --- | --- | --- | --- | --- | --- |
| COC1CN(Cc2ccc(Nc3nccc(-c4ccc(OC5CCOCC5)c(C#N)c4)n3)cc2)C1 [compound 487] | < 5 | < 10 | < 100 | – | – | – |
| COCCNCc1ccc(Nc2nccc(-c3ccc(OC4CCOCC4)c(C#N)c3)n2)cc1 [compound 488, 5-{2-[(4-{[(2-methoxyethyl)amino]methyl}phenyl)amino]pyrimidin-4-yl}-2-(tetrahydro-2H-pyran-4-yloxy)benzonitrile] | < 5 | < 10 | < 100 | – | – | – |
| CS(=O)(=O)NCc1ccc(Nc2nccc(-c3ccc(OC4CCOCC4)c(C#N)c3)n2)cc1 [compound 493, N-[4-({4-[3-cyano-4-(tetrahydro-2H-pyran-4-yloxy)phenyl]pyrimidin-2-yl}amino)benzyl] methanesulfonamide] | < 5 | < 10 | < 100 | – | – | – |
| N#Cc1cc(-c2ccnc(Nc3ccc(CO)cc3)n2)ccc1OC1CCOCC1 [compound 499, 5-(2-{[4-(hydroxymethyl)phenyl]amino}pyrimidin-4-yl)-2-(tetrahydro-2H-pyran-4-yloxy)benzonitrile] | 5 to 50 | < 10 | 100 to 250 | 5.1 | 0.5 | 142 |
| N#Cc1cc(-c2ccnc(Nc3ccc(Cn4ccnc4)cc3)n2)ccc1OC1CCOCC1 [compound 500, 5-(2-{[4-(1H-imidazol-1-ylmethyl)phenyl]amino}pyrimidin-4-yl)-2-(tetrahydro-2H-pyran-4-yloxy)benzonitrile] | < 5 | < 10 | < 100 | 2 | 0.3 | 91.8 |
| COc1cc(Nc2nccc(-c3ccc(OC4CCOCC4)c(C#N)c3)n2)ccc1C(=O)N1CCN2CCCC2C1 (stereo not drawn) [compound 501, 5-(2-{[4-(hexahydropyrrolo[1,2-a]pyrazin-2(1H)-ylcarbonyl)-3-methoxyphenyl]amino}pyrimidin-4-yl)-2-(tetrahydro-2H-pyran-4-yloxy)benzonitrile] | < 5 | < 10 | < 100 | 1.1 | 0.1 | 25.9 |
| CCN(CC)CCNC(=O)c1ccc(Nc2nccc(-c3ccc(OC4CCOCC4)c(C#N)c3)n2)cc1OC [compound 506, 4-({4-[3-cyano-4-(tetrahydro-2H-pyran-4-yloxy)phenyl]pyrimidin-2-yl}amino)-N-[2-(diethylamino)ethyl]-2-methoxybenzamide] | < 5 | < 10 | < 100 | – | – | – |
| CCN1CCN(Cc2ccc(Nc3nccc(-c4ccc(OC5CCN(C(=O)[C@H](C)O)CC5)c(C#N)c4)n3)cc2)CC1 [compound 508, 5-[2-({4-[(4-ethylpiperazin-1-yl)methyl]phenyl}amino)pyrimidin-4-yl]-2-({1-[(2S)-2-hydroxypropanoyl]piperidin-4-yl}oxy)benzonitrile] | 5 to 50 | 10 to 100 | 100 to 250 | – | – | – |
| N#Cc1cc(-c2ccnc(Nc3ccc(CN4CCOCC4)cc3)n2)ccc1OC1CCOCC1 [compound 510, 5-(2-{[4-(morpholin-4-ylmethyl)phenyl]amino}pyrimidin-4-yl)-2-(tetrahydro-2H-pyran-4-yloxy)benzonitrile] | < 5 | < 10 | < 100 | – | – | – |
| N#Cc1cc(-c2ccnc(Nc3ccc(CN4CCN(CCO)CC4)cc3)n2)ccc1OC1CCOCC1 [compound 511, 5-{2-[(4-{[4-(2-hydroxyethyl)piperazin-1-yl]methyl}phenyl)amino]pyrimidin-4-yl}-2-(tetrahydro-2H-pyran-4-yloxy)benzonitrile] | < 5 | < 10 | 100 to 250 | – | – | – |

Results, then the compound that gave them:

| IC50 [1, 4] [nM] | IC50 [2, 5] [nM] | IC50 [3, 6] [nM] | IC50 ([1]; Table 3, read-out: IKKε IC50) [nM] | IC50 ([2]; Table 3, read-out: TBK1 IC50) [nM] | IC50 [3, 7] [nM] | Compound |
| --- | --- | --- | --- | --- | --- | --- |
| < 5 | < 10 | 100 to 250 | – | – | – | CCOC(=O)C(C)NCc1ccc(Nc2nccc(-c3ccc(OC4CCOCC4)c(C#N)c3)n2)cc1 (stereo not drawn) [compound 489, ethyl N-[4-({4-[3-cyano-4-(tetrahydro-2H-pyran-4-yloxy)phenyl]pyrimidin-2-yl}amino)benzyl] alaninate] |
| < 5 | < 10 | 100 to 250 | – | – | – | C[C@H](O)C(=O)NCc1ccc(Nc2nccc(-c3ccc(OC4CCOCC4)c(C#N)c3)n2)cc1 [compound 494, (2S)-N-[4-({4-[3-cyano-4-(tetrahydro-2H-pyran-4-yloxy)phenyl]pyrimidin-2-yl}amino)benzyl]-2-hydroxypropanamide] |
| < 5 | < 10 | < 100 | – | – | – | N#Cc1cc(-c2ccnc(Nc3ccc(CNC(=O)CO)cc3)n2)ccc1OC1CCOCC1 [compound 495, N-[4-({4-[3-cyano-4-(tetrahydro-2H-pyran-4-yloxy)phenyl]pyrimidin-2-yl}amino)benzyl]-2-hydroxyacetamide] |
| < 5 | < 10 | < 100 | – | – | – | N#Cc1cc(-c2ccnc(Nc3ccc(CN4CC(O)C4)cc3)n2)ccc1OC1CCOCC1 [compound 497, 5-[2-({4-[(3-hydroxyazetidin-1-yl)methyl]phenyl}amino)pyrimidin-4-yl]-2-(tetrahydro-2H-pyran-4-yloxy)benzonitrile] |
| < 5 | < 10 | < 100 | – | – | – | COc1cc(Nc2nccc(-c3ccc(OC4CCOCC4)c(C#N)c3)n2)ccc1CO [compound 498, 5-(2-{[4-(hydroxymethyl)-3-methoxyphenyl]amino}pyrimidin-4-yl)-2-(tetrahydro-2H-pyran-4-yloxy)benzonitrile] |
| < 5 | < 10 | < 100 | – | – | – | COc1cc(Nc2nccc(-c3ccc(OC4CCOCC4)c(C#N)c3)n2)ccc1C(=O)N1CCC(N2CCCC2)C1 (stereo not drawn) [compound 502, 5-(2-{[4-(1,3′-bipyrrolidin-1′-ylcarbonyl)-3-methoxyphenyl]amino}pyrimidin-4-yl)-2-(tetrahydro-2H-pyran-4-yloxy)benzonitrile] |
| < 5 | < 10 | < 100 | – | – | – | COc1cc(Nc2nccc(-c3ccc(OC4CCOCC4)c(C#N)c3)n2)ccc1C(=O)N1CCN(C(C)C)CC1 [compound 503, 5-{2-[(3-methoxy-4-{[4-(propan-2-yl)piperazin-1-yl]carbonyl}phenyl)amino]pyrimidin-4-yl}-2-(tetrahydro-2H-pyran-4-yloxy)benzonitrile] |
| < 5 | < 10 | < 100 | – | – | – | COc1cc(Nc2nccc(-c3ccc(OC4CCOCC4)c(C#N)c3)n2)ccc1C(=O)NCCN1CCCC1 [compound 504, 4-({4-[3-cyano-4-(tetrahydro-2H-pyran-4-yloxy)phenyl]pyrimidin-2-yl}amino)-2-methoxy-N-[2-(pyrrolidin-1-yl)ethyl]benzamide] |
| < 5 | < 10 | < 100 | – | – | – | COc1cc(Nc2nccc(-c3ccc(OC4CCOCC4)c(C#N)c3)n2)ccc1C(=O)N1CC(CN(C)C)C1 [compound 507, 5-(2-{[4-({3-[(dimethylamino)methyl]azetidin-1-yl}carbonyl)-3-methoxyphenyl]amino}pyrimidin-4-yl)-2-(tetrahydro-2H-pyran-4-yloxy)benzonitrile] |
